The values below come from paper PMC11645656, “MRGPRX4 mediates phospho-drug associated pruritus in a humanized mouse model” (Science translational medicine, 2024).

Experiment [1] relates to NP2-X4+ DRG neurons. The experiment in a line: GCaMP6s calcium imaging of cultured NP2-X4+ DRG neurons. The conditions noted are these: 10 μM phospho-drugs; 1 mM CQ. In kind it is cell-based, mouse. The source says:
Fig. 2. Phosphate monoester prodrugs induce itch in NP2-MRGPRX4+ mice through activating NP2 primary sensory neurons. (A) Mating strategy to generate NP2-X4+ mice. (B) In situ hybridization showing MRGPRX4 transcripts (magenta) in NP2-X4+ DRG as indicated by arrowheads (left) but not in littermate control NP2-WT (right). NP2 subpopulation accounts for 5% of total DRG neurons. DAPI, blue. Scale bar, 50 μm. […]. Data are expressed as mean ± SEM. *p< 0.05, **p< 0.01 and ***p< 0.001 by two-tailed unpaired Student’s t-test. ns = no statistical significance observed. (D and E) Traces of average (top, depicted as mean ± 95% confidence interval) and individual (bottom, reflected by the heatmap) calcium activity, measured by fluorescence intensity normalized to the baseline intensity (FT/F0) over time of NP2-X4+ (D) and NP2-WT (E) DRG neurons labelled with GCaMP6s (n = 110–150 neurons pooled from 3–7 independent culture vessels from 2–4 mice in each condition). 10 μM phospho-drugs and 1 mM CQ were added as indicated by the arrowheads. Neurons with FT/F0 > 1.5 after compound application were considered a positive responder. NP2-X4+: NP2-MRGPRX4+; DRG, dorsal root ganglia; CQ: chloroquine.
The procedures were performed following previously established protocols ([15]). Murine DRGs (from both male and female) were harvested from all spinal segments and digested in dispase (5 mg/ml) / type I collagenase (1 mg/ml) enzyme mix at 37 °C for an hour. Enzyme mix was replaced with complete DH10 media (90% DMEM/F12, 10% FBS, penicillin (100 units/ml), and streptomycin (100 μg/ml)) and gently triturated with 1 ml pipette tip until the media turned cloudy without visible tissue chunks. Dissociated tissues were filtered through a 70 μm filter and spun down 1250 rpm for 5 min at RT. Supernatant was removed and the cell pellet was resuspended in complete DH10 media. Cell suspension was then added on top of poly-D-lysine- and laminin-coated coverslips and sat for 1–2 h at 37°C. Complete DH10 media supplemented with NGF (50 ng/ml) was then added into the vessel. Neurons were allowed to recover overnight at 37°C for the next-day calcium imaging experiment.
Calcium imaging data was collected with a Nikon Eclipse TE 200 microscope. Time series GCaMP6 fluorescence intensity was acquired through the FITC/GFP channel. Before the imaging, cultured neurons were washed and equilibrated in CIB for 30 min at 37°C. In each trial, compounds (as indicated in the results) were added into the imaging chamber after a 30 s baseline GCaMP6 activity was collected. […] Neurons with GCaMP6 signal rose above 50% of the baseline intensity after compound application were counted as positive responders and the percentage of responding neurons was calculated. […]

Experiment [2] has as its target T1, MRGPRX4 R95A (Homo sapiens, UniProt Q96LA9, L83S/R95A).
T1 construct: expressed in transfected cells; host or cells: HEK293T, transient
In words: Calcium mobilization assay (FLIPR), MRGPRX4 R95A mutant. In kind it is cell-based. The source says: Fig. 3. […] (A) Cryo-EM density map of MRGPRX4-Gq in complex with fospropofol. (B) The density map of fospropofol and R82 of MRGPRX4. (C and D) Key molecular interactions between fospropofol and the hydrophilic (C) and hydrophobic (D) part of the agonist binding pocket of MRGPRX4. Amino acid residues interacting with fospropofol are shown as sticks. Hydrogen bond is shown as cyan dashed lines. […] Data are from at least three independent experiments, each performed in triplicate, and reported as the mean ± SEM. (E) and (F) were collected from the same sets of experiments.
To generate murine Mrgprs expressing cells, HEK293T cells (ATCC) were seeded on poly-D-lysine coated 96 well plate at 25,000 cells per well one day prior to transfection. HEK293T cells were transiently co-transfected with the mammalian expression plasmids carrying cDNA encoding the murine Mrgpr genes and plasmid inserted with cDNA encoding murine α-subunit of the heterotrimeric G15 protein (Gα15) in triplicates using Lipofectamine LTX reagents (Thermo Scientific). To generate WT, S83L, and alanine mutant MRGPRX4-expressing cells, HEK293T cells were seeded on poly-D-lysine coated 384 well plate at 12,000 cells per well one day prior to transfection. […]
A general note: A change in cytosolic calcium serves as a functional read-out for many receptors and channels.

The subject of experiment [3] is WT mice. The experiment in a line: Itch behavioral study in WT mice across concentrations (fig. S4).
Experimental: Experimenters and subjects scoring the recorded videos were both blind to the mouse genotype and tested compounds. Behavioral tests comparing NP2-WT and NP2-X4+ scratching behavior were 6–12weeks old littermates including both genders. In brief, on the day preceding the experiment, animals were acclimated to the test chamber for at least 30 min and the experimenters performed mock injections 1–2 times in between. On the day of experiments, animals were habituated in test chambers for 10 min before receiving subcutaneous injection of 50ul compounds. Videos were recorded for 30 min after the injection. A bout of scratching was defined as a sustained scratching movement initiated by hindpaws toward the injection site (until the pause of the movement / withdrawal of the hindpaw). Scratching bouts were quantified within the 30 min record sessions.
Setting [4] is: 1 mM subcutaneous nape injection.
[5] abbreviates: 10 mM subcutaneous nape injection.

Several values for one entry are separate records, joined by “and”; a condition that tells them apart may be missing. Equal entries are not always repeated.

T1 sequence (Q96LA9 whole entry L83S/R95A): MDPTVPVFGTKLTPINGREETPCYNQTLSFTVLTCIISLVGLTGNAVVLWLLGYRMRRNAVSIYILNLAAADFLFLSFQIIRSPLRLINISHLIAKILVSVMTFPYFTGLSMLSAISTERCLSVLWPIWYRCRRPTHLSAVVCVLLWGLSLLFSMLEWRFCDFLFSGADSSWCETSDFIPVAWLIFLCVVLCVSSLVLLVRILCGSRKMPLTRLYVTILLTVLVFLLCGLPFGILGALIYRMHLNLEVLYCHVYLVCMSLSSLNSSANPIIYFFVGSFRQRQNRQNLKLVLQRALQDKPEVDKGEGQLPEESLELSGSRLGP

On to `O=C1NC(c2ccccc2)(c2ccccc2)C(=O)N1COP(=O)(O)O` [Fosphenytoin], for which the “Calcium response of NP2-X4+ neurons” value in experiment [1] is “strong calcium transients”. For the same molecule, the “Calcium mobilization response at alanine mutant R95A vs WT” value in experiment [2] is “either greatly attenuated or abolished”. For the same molecule, the “Scratching bouts (each well represents individual mouse)” value in experiment [3] (setting [4]) was 0 (2×) and 16 (2×) and 11 and 26; in experiment [3] (setting [5]), 3 and 4 and 1 and 0 and 26.
For the molecule `CC(C)c1cccc(C(C)C)c1OCOP(=O)(O)O` [Fospropofol], the “Calcium response of NP2-X4+ neurons” value in experiment [1] is “strong calcium transients”. Moreover, in experiment [2], the “Calcium mobilization response at alanine mutant R95A vs WT” value is “either greatly attenuated or abolished”. The “Scratching bouts (each well represents individual mouse)” value in experiment [3] (setting [4]) was 16 and 12 and 11 and 28; in experiment [3] (setting [5]), 5 and 20 and 15 and 16.
